System: Jurkat cells engineered to have enhanced green fluorescent protein (eGFP) reporter fused to nuclear factor of activated T cells (NFAT) transcription factor
Test: NFAT-eGFP reporter assay in Jurkat cells with compounds photoreleased from labeled perturbation beads
Type: cell-based
Conditions: compounds released from beads by 10 seconds of 365 nm light, 60 mW/cm^2
Experimental: Individual beads were added to wells of a multiwell assay device. Jurkat cells engineered to have enhanced green fluorescent protein (eGFP) reporter fused to nuclear factor of activated T cells (NFAT) transcription factor were added to each well (cells purchased from BPS Bioscience, Catalog #78384). The compounds were released from the beads by exposure to 10 seconds of 365 nm wavelength light having illumination power of 60 mW/cm^2 and allowed to interact with the cells in the respective wells. […] This exemplifies using optically detectible labels on the bead to code for perturbation compounds and/or building blocks and corresponding that visible code to a cell perturbation.

| Structure (SMILES) | change in NFAT-eGFP expression levels |
| --- | --- |
| COc1cc2c(cc1Nc1ncc(C(=O)O)c(Nc3c(F)cccc3C(F)(F)F)n1)CN(C)CC2 [HPK, 4-{[2-Fluoro-6-(trifluoromethyl)phenyl]amino}-2-[(6-methoxy-2-methyl-1,2,3,4-tetrahydro-7-isoquinolinyl)amino]-5-pyrimidine-5-carboxylic acid] | minimal change |
| O=C1CCC(N2Cc3cc(C(=O)O)ccc3C2=O)C(=O)N1 (stereo not drawn) [LNI, 2-(2,6-dioxopiperidin-3-yl)-1-oxoisoindoline-5-carboxylic acid] | minimal change |
| Cc1sc2c(c1C)C(c1ccc(Cl)cc1)=NC([C@@H](C(=O)O)C(C)(C)C)c1nnc(C)n1-2 (stereo partly drawn) [JQ1, ((S)-tert-butyl 2-(4-(4-chlorophenyl)-2,3,9-trimethyl-6H-thieno[3,2-f] [1,2,4]triazolo[4,3-a] [1,4]diazepin-6-yl)acetic acid)] | minimal change |

Reference: US12577556B2, “Perturbation beads for use in assays” (Zafrens Inc., priority 2022, dated 2026)
